PubChem BioAssay AID1671221

Target: Tyrosine-protein kinase Blk (Homo sapiens) (UniProt P51451)
Assay: inhibition of BLK tyrosine kinase activity – biochemical, Z'-LYTE FRET, direct format, recombinant human, dose response (AID 1671221)
Settings: Z'-LYTE FRET peptide phosphorylation

Tyrosine-protein kinase Blk (Homo sapiens), sequence (P51451 whole entry, looked up): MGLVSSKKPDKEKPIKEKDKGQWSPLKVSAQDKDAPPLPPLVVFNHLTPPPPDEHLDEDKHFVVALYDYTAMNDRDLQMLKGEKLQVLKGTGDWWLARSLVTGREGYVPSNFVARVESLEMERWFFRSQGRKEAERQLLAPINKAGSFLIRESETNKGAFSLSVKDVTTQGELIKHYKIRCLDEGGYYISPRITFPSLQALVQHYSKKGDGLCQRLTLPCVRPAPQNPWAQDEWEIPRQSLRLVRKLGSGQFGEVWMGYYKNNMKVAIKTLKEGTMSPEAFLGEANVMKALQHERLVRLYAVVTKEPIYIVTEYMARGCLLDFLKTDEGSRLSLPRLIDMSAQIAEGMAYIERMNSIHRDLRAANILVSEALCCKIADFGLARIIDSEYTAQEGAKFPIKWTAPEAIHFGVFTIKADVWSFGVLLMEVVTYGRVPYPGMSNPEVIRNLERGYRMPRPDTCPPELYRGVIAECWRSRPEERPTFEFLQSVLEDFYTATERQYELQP

Q: For COc1cc2ncnc(Nc3cccc(Cl)c3)c2cc1OC, which IC50 is on record?
A: 1160 nM
